Reference: patent US20260262643A1, “HERBICIDAL BENZOXAZINES” (FMC CORPORATION, priority 2022, published 2026)

Experiments:
[1] = tested on: ragweed; assay: Test C preemergence; type: in vivo, Ambrosia artemisiifolia
Method in brief: (§1)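 Greenhouse herbicide screen, 10-day duration. Test chemicals in solvent/surfactant blend were sprayed onto soil at sowing (pre) or onto 2–10 cm seedlings at one to two leaves (post); injury scored visually against controls, 0 no effect to 100 complete control.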

[2] = tested on: ryegrass, Italian; assay: Test C postemergence; type: in vivo, Lolium multiflorum; conditions: Postemergence, 125 g ai/ha; 0 to 100 scale (0 no effect, 100 complete control), 10 days
Method in brief: as §1

[3] = tested on: pigweed, palmer; assay: Test C postemergence; type: in vivo, Amaranthus palmeri; conditions: 10 days, 0 to 100 scale (0 no effect, 100 complete control)
Method in brief: as §1

[4] = tested on: ryegrass, Italian; assay: Test C preemergence; type: in vivo, Lolium multiflorum
Method in brief: as §1

[5] = tested on: rice; assay: Test D flooded paddy test; type: in vivo, Oryza sativa; conditions: 250 g ai/ha, applied to paddy water, visual rating after 13 to 14 days, scale 0 to 100 (0 no effect, 100 complete control)
Method in brief: (§2)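 Post-flood water application at the 2-leaf stage; 3 cm flood depth kept constant; visual control rating 0–100 after 13–14 days greenhouse growth.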

[6] = tested on: kochia; assay: Test C postemergence; type: in vivo, Bassia scoparia; conditions: 10 days, 0 to 100 scale (0 no effect, 100 complete control)
Method in brief: as §1

[7] = tested on: oat, wild; assay: Test C preemergence; type: in vivo, Avena fatua
Method in brief: as §1

[8] = tested on: oat, wild; assay: Test C postemergence; type: in vivo, Avena fatua; conditions: 10 days, 0 to 100 scale (0 no effect, 100 complete control)
Method in brief: as §1

[9] = tested on: soybean; assay: Test C preemergence; type: in vivo, Glycine max
Method in brief: as §1

[10] = tested on: green foxtail; assay: Test C preemergence; type: in vivo, Setaria viridis
Method in brief: as §1

[11] = tested on: ducksalad; assay: Test D flooded paddy test; type: in vivo, Heteranthera limosa; conditions: 250 g ai/ha, applied to paddy water, visual rating after 13 to 14 days, scale 0 to 100 (0 no effect, 100 complete control)
Method in brief: as §2

[12] = tested on: green foxtail; assay: Test C postemergence; type: in vivo, Setaria viridis; conditions: 10 days, 0 to 100 scale (0 no effect, 100 complete control)
Method in brief: as §1

[13] = tested on: horseweed; assay: Test C postemergence; type: in vivo, Erigeron canadensis; conditions: 10 days, 0 to 100 scale (0 no effect, 100 complete control)
Method in brief: as §1

[14] = tested on: wheat; assay: Test C preemergence; type: in vivo, Triticum aestivum
Method in brief: as §1

[15] = tested on: sedge, umbrella; assay: Test D flooded paddy test; type: in vivo, Cyperus difformis; conditions: 250 g ai/ha, applied to paddy water, visual rating after 13 to 14 days, scale 0 to 100 (0 no effect, 100 complete control)
Method in brief: as §2

[16] = tested on: wheat; assay: Test C postemergence; type: in vivo, Triticum aestivum; conditions: Postemergence, 125 g ai/ha; 0 to 100 scale (0 no effect, 100 complete control), 10 days
Method in brief: as §1

[17] = tested on: barnyardgrass; assay: Test C postemergence; type: in vivo, Echinochloa crusgalli; conditions: 10 days, 0 to 100 scale (0 no effect, 100 complete control)
Method in brief: as §1

[18] = tested on: blackgrass; assay: Test C preemergence; type: in vivo, Alopecurus myosuroides
Method in brief: as §1

[19] = tested on: barnyardgrass; assay: Test D flooded paddy test; type: in vivo, Echinochloa crus-galli; conditions: 250 g ai/ha, applied to paddy water, visual rating after 13 to 14 days, scale 0 to 100 (0 no effect, 100 complete control)
Method in brief: as §2

[20] = tested on: corn; assay: Test C postemergence; type: in vivo, Zea mays; conditions: 10 days, 0 to 100 scale (0 no effect, 100 complete control)
Method in brief: as §1

[21] = tested on: kochia; assay: Test C preemergence; type: in vivo, Bassia scoparia
Method in brief: as §1

[22] = tested on: ragweed; assay: Test C postemergence; type: in vivo, Ambrosia artemisiifolia; conditions: Postemergence, 125 g ai/ha; 0 to 100 scale (0 no effect, 100 complete control), 10 days
Method in brief: as §1

[23] = tested on: corn; assay: Test C preemergence; type: in vivo, Zea mays
Method in brief: as §1

[24] = tested on: pigweed, palmer; assay: Test C preemergence; type: in vivo, Amaranthus palmeri
Method in brief: as §1

[25] = tested on: soybean; assay: Test C postemergence; type: in vivo, Glycine max; conditions: Postemergence, 125 g ai/ha; 0 to 100 scale (0 no effect, 100 complete control), 10 days
Method in brief: as §1

[26] = tested on: blackgrass; assay: Test C postemergence; type: in vivo, Alopecurus myosuroides; conditions: 10 days, 0 to 100 scale (0 no effect, 100 complete control)
Method in brief: as §1

[27] = tested on: barnyardgrass; assay: Test C preemergence; type: in vivo, Echinochloa crusgalli
Method in brief: as §1

[28] = 500 g ai/ha, preemergence, 0 to 100 scale (0 no effect, 100 complete control)
[29] = Preemergence, 125 g ai/ha, 0 to 100 scale, 0 no effect, 100 complete control

CCOC[C@H]1CN(C(=O)c2cc(-n3cnc(C(C)(C)C)n3)cc3c2OCO3)c2cccc(Cl)c2O1 [Compound 401]
Ragweed plant response rating [1, 28]: 60 | Plant response rating, Ragweed [1, 29]: 0 | Plant response rating, Ryegrass, Italian [2]: 0 | Plant response rating, Pigweed, Palmer ([3]; 500 g ai/ha, postemergence): 90 | Plant response rating, Pigweed, Palmer ([3]; Postemergence, 125 g ai/ha): 100 | Ryegrass, Italian plant response rating [4, 28]: 90 | Plant response rating, Ryegrass, Italian [4, 29]: 70 | Plant response rating, Rice (Flood) [5]: 0 | Plant response rating, Kochia ([6]; 500 g ai/ha, postemergence): 100 | Plant response rating, Kochia ([6]; Postemergence, 125 g ai/ha): 90 | Oat, Wild plant response rating [7, 28]: 40 | Plant response rating, Oat, Wild [7, 29]: 0 | Plant response rating, Oat, Wild ([8]; 500 g ai/ha, postemergence): 0 | Plant response rating, Oat, Wild ([8]; Postemergence, 125 g ai/ha): 0 | Soybean plant response rating [9, 28]: 40 | Plant response rating, Soybean [9, 29]: 0 | Foxtail, Green plant response rating [10, 28]: 100 | Plant response rating, Foxtail, Green [10, 29]: 20 | Plant response rating, Ducksalad (Flood) [11]: 0 | Plant response rating, Foxtail, Green ([12]; 500 g ai/ha, postemergence): 20 | Plant response rating, Foxtail, Green ([12]; Postemergence, 125 g ai/ha): 10 | Plant response rating, Horseweed ([13]; 500 g ai/ha, postemergence): 70 | Plant response rating, Horseweed ([13]; Postemergence, 125 g ai/ha): 60 | Wheat plant response rating [14, 28]: 20 | Plant response rating, Wheat [14, 29]: 0 | Plant response rating, Sedge, Umbrella (Flood) [15]: 0 | Plant response rating, Wheat [16]: 10 | Plant response rating, Barnyardgrass ([17]; 500 g ai/ha, postemergence): 20 | Plant response rating, Barnyardgrass ([17]; Postemergence, 125 g ai/ha): 10 | Blackgrass plant response rating [18, 28]: 30 | Plant response rating, Blackgrass [18, 29]: 30 | Plant response rating, Barnyardgrass (Flood) [19]: 0 | Plant response rating, Corn ([20]; 500 g ai/ha, postemergence): 40 | Plant response rating, Corn ([20]; Postemergence, 125 g ai/ha): 0 | Kochia plant response rating [21, 28]: 90 | Plant response rating, Kochia [21, 29]: 0 | Plant response rating, Ragweed [22]: 60 | Corn plant response rating [23, 28]: 20 | Plant response rating, Corn [23, 29]: 0 | Pigweed, Palmer plant response rating [24, 28]: 100 | Plant response rating, Pigweed, Palmer [24, 29]: 100 | Plant response rating, Soybean [25]: 0 | Plant response rating, Blackgrass ([26]; 500 g ai/ha, postemergence): 30 | Plant response rating, Blackgrass ([26]; Postemergence, 125 g ai/ha): 10 | Barnyardgrass plant response rating [27, 28]: 70 | Plant response rating, Barnyardgrass [27, 29]: 30
